Data as given in patent publication US20080069899A1, “Pharmaceutical Compositions Comprising Beta-Carboline Derivatives and Use Thereof for the Treatment of Cancer” (priority 2004, published 2008).
Values joined by “and” are separate entries in the source; they are usually repeats but may differ in a detail not shown here. Equal entries are not always repeated. Where two headings read alike, the source gives them in different places.

What was measured:
[1] = tested on: HBMEC (immortalized human bone marrow endothelial cell lines); test: in vitro cytotoxicity test (neutral red, 96-well microplate); assay type: cell-based; details: 96 h, incubation 4 days
Experimental: (§1) The cytotoxic effects of the different alkaloid extracts of P. harmala were studied on several cell lines: • human leukemia cell lines: K562 and Jurkat (leukemia), U937 (myeloma), • human solid tumor cell lines: KB (epithelioma of the nasopharynx) and HT29 (colon), • immortalized human bone marrow endothelial cell lines: HBMEC.
(§2) The cells are cultured in an oven under a 5% CO2 atmosphere and at 37° C., in RPMI 1640 medium for K562, Jurkat, U937 and HT29 and DMEM for KB, supplemented with 10% foetal calf serum, 0.01% penicillin-streptomycin and L-glutamine 2 mM and in EGM2 medium for the HBMEC cells.
(§3) The cytotoxicity test is carried out in a 96-well microplate in the presence of the extract to be tested at varying concentrations of 40, 20, 10, 5, 1, 0.5 μg/ml and in the absence of product, after incubation for 4 days at 37° C. On the 3rd day, a solution of neutral red is added which is absorbed by living cells. The optical density (OD) of dye released by lyzed cells is measured at 540 nm by an Elisa plate reader. The toxicity (% inhibition of growth) is inversely proportional to the optical density.
(§4) The percentage of inhibition is defined as being the difference between the OD without product and the OD in the presence of product compared to the OD without product.
(§5) The concentration inhibiting 50% of cell growth is obtained from the curve representing the percentage of inhibition as a function of the logarithm of the concentration.

HT29 (colon) = test: as above; assay type: cell-based; details: Homo sapiens, HT-29, 96 h, incubation 4 days
Experimental: as §1, §2, §3, §4, §5

Jurkat (leukemia) = test: as above; assay type: cell-based; details: Homo sapiens, 96 h, incubation 4 days
Experimental: as §1, §2, §3, §4, §5

K562 (leukemia) = test: as above; assay type: cell-based; details: Homo sapiens, 96 h, incubation 4 days
Experimental: as §1, §2, §3, §4, §5

[2] = tested on: KB (epithelioma of the nasopharynx); test: as above; assay type: cell-based; details: Homo sapiens, 96 h, incubation 4 days
Experimental: as §1, §2, §3, §4, §5

U937 (myeloma) = test: as above; assay type: cell-based; details: Homo sapiens, U-937, 96 h, incubation 4 days
Experimental: as §1, §2, §3, §4, §5

[3] = tested on: HT29 human colon tumor cells; test: in vivo antineoplastic activity, NOD-SCID mice xenografted with HT29 human tumour cells
Experimental: (§6) The animal model chosen is that of severe combined immunodeficient (NOD-SCID) mice having received a xenograft of human tumor cells.
(§7) Male and female NOD-SCID mice, more than 3 months old, were raised in an environment of strict sterility, in an insulator ventilated with filtered air and sterilized, at 22° C. and 40% humidity, with a day-12 h/night-12 h cycle. The cages, feeding bottles and the water were sterilized in an autoclave at 120° C. for 30 minutes and the food as well as the bedding were treated with γ-irradiation. All handling took place in aseptic conditions under a laminar flow hood.
The mice were subjected to general anaesthesia by i.p. injection of 0.3 to 0.4 ml of hypnomidate at 2 mg/ml. 1×10^7 HT29 human colon tumor cells in suspension in 200 μl of PBS were then injected sub-cutaneously, into the backs of the mice. […]
50 mg of 5-fluorouracil (Sigma) were dissolved in 8 ml of water and the solution obtained was sterilized by filtration on a membrane with 0.22 μm porosity. […]

[4] = Experimental: as §6, §7
150 mg of cyclophosphamide (Sigma) were dissolved in 8 ml of water and the solution obtained was sterilized by filtration on a membrane with 0.22 μm porosity.
50 mg of 5-fluorouracil (Sigma) were dissolved in 8 ml of water and the solution obtained was sterilized by filtration on a membrane with 0.22 μm porosity.
100 mg of dihydrated harmalacidine hydrochloride were dissolved in 8 ml of water and the solution obtained was sterilized by filtration on a membrane with 0.22 μm porosity. The mice received either 25, 50, or 100 mg/kg/day of harmalacidine alone, or a mixture of 25 or 50 mg/kg/day of harmalacidine+50 mg/kg/day of cyclophosphamide.

murine tumorous cells = details: cited from earlier work
[5] = tested on: malignant and endothelial cells tested; test: summary of in vitro cytotoxicity over all lines tested; assay type: cell-based, human; details: Homo sapiens, Endothelial cell, range over the cell lines; read-out: IC50 vis-à-vis malignant and endothelial cells tested
Experimental: as §1, §2, §3, §4, §5
To summarize, the IC50 vis-à-vis malignant and endothelial cells tested is the following: […]

[6] = tested on: HT29 human colon tumor cells; test: in vivo antineoplastic activity, NOD-SCID mice xenografted with HT29 human tumour cells; remark: listed apart in the source

COc1ccc2c3c([nH]c2c1)C(=O)NCC3 [Harmalacidine (C), harmalacidine]
IC50 [1]: 28 µg/mL and 130 µM
IC50 (HT29 (colon)): 10.5 µg/mL and 34.4 µM
IC50 (Jurkat (leukemia)): 15.5 µg/mL and 71.7 µM
IC50 (K562 (leukemia)): 12.5 µg/mL and 57.8 µM
IC50 [2]: 12 µg/mL and 55.5 µM
IC50 (U937 (myeloma)): 29 µg/mL and 134 µM
Average volume of the tumours of the treated mice compared to the average volume of the tumours of the non-treated mice (T/C) (%) ([3]; harmalacidine 25 mg/kg/day alone per os, Day 15): 81%
Average volume of the tumours of the treated mice compared to the average volume of the tumours of the non-treated mice (T/C) (%) ([3]; harmalacidine 25 mg/kg/day alone per os, Day 30): 72%
Average volume of the tumours of the treated mice compared to the average volume of the tumours of the non-treated mice (T/C) (%) ([3]; harmalacidine 25 mg/kg/day alone per os, Day 40): 70%
Average volume of the tumours of the treated mice compared to the average volume of the tumours of the non-treated mice (T/C) (%) ([3]; harmalacidine 25 mg/kg/day alone per os, Day 50): 65%
Average volume of the tumours of the treated mice compared to the average volume of the tumours of the non-treated mice (T/C) (%) ([3]; harmalacidine 25 mg/kg/day alone per os, Day 60): 77%
Average volume of the tumours of the treated mice compared to the average volume of the tumours of the non-treated mice (T/C) (%) ([3]; harmalacidine 50 mg/kg/day alone per os, Day 15): 42%
Average volume of the tumours of the treated mice compared to the average volume of the tumours of the non-treated mice (T/C) (%) ([3]; harmalacidine 50 mg/kg/day alone per os, Day 30): 56%
Average volume of the tumours of the treated mice compared to the average volume of the tumours of the non-treated mice (T/C) (%) ([3]; harmalacidine 50 mg/kg/day alone per os, Day 40): 48%
Average volume of the tumours of the treated mice compared to the average volume of the tumours of the non-treated mice (T/C) (%) ([3]; harmalacidine 50 mg/kg/day alone per os, Day 50): 45%
Average volume of the tumours of the treated mice compared to the average volume of the tumours of the non-treated mice (T/C) (%) ([3]; harmalacidine 50 mg/kg/day alone per os, Day 60): 57%
state of the mice (printed in the T/C column) ([4]; harmalacidine 100 mg/kg/day alone, Day 15): dead
tolerance of the dose ([4]; harmalacidine 100 mg/kg/day, for more than 10 days): not tolerated

Peganine [Peganine (B)]
concentration inhibiting 50% of cell growth (IC50) (murine tumorous cells): inactive

COc1ccc2c(c1)[nH]c1c(C)nccc12 [Harmine (A), harmine]
IC50 [1]: 3.5 µg/mL and 16.5 µM
IC50 (HT29 (colon)): 2.9 µg/mL and 13.7 µM
IC50 (Jurkat (leukemia)): 3.2 µg/mL and 15.1 µM
IC50 [2]: 4.6 µg/mL and 21.7 µM
IC50 (U937 (myeloma)): 16.5 µM
IC50 [5]: 2.9 µg/mL to 4.6 µg/mL and 14 µM to 22 µM
inhibitory action on the growth of the tumors ([3]; harmine 100 mg/kg/day per os): very weak effect
Average volume of the tumours of the treated mice compared to the average volume of the tumours of the non-treated mice (T/C) (%) ([3]; harmine 100 mg/kg/day per os, Day 30): 74%
Average volume of the tumours of the treated mice compared to the average volume of the tumours of the non-treated mice (T/C) (%) ([3]; harmine 100 mg/kg/day per os, Day 50): 84%
Average volume of the tumours of the treated mice compared to the average volume of the tumours of the non-treated mice (T/C) (%) ([3]; harmine 100 mg/kg/day per os, Day 60): 105%
Average volume of the tumours of the treated mice compared to the average volume of the tumours of the non-treated mice (T/C) (%) ([3]; harmine 125 mg/kg/day per os, Day 40): 58%
Average volume of the tumours of the treated mice compared to the average volume of the tumours of the non-treated mice (T/C) (%) ([3]; harmine 125 mg/kg/day per os, Day 50): 54%
Average volume of the tumours of the treated mice compared to the average volume of the tumours of the non-treated mice (T/C) (%) ([3]; harmine 125 mg/kg/day per os, Day 60): 67%
Average volume of the tumours of the treated mice compared to the average volume of the tumours of the non-treated mice (T/C) (%) ([3]; harmine 150 mg/kg/day per os, Day 30): 41%
Average volume of the tumours of the treated mice compared to the average volume of the tumours of the non-treated mice (T/C) (%) ([3]; harmine 150 mg/kg/day per os, Day 40): 46%
Average volume of the tumours of the treated mice compared to the average volume of the tumours of the non-treated mice (T/C) (%) ([3]; harmine 150 mg/kg/day per os, Day 50): 42%
Average volume of the tumours of the treated mice compared to the average volume of the tumours of the non-treated mice (T/C) (%) ([3]; harmine 150 mg/kg/day per os, Day 60): 51%
Average volume of the tumours of the treated mice compared to the average volume of the tumours of the non-treated mice (T/C) (%) ([3]; harmine 175 mg/kg/day per os, Day 30): 40%
Average volume of the tumours of the treated mice compared to the average volume of the tumours of the non-treated mice (T/C) (%) ([3]; harmine 175 mg/kg/day per os, Day 60): 40%
T/C ([3]; harmine 175 mg/kg/day per os, for the entire duration of treatment): 40%
tolerance of the dose ([4]; harmine 200 mg/kg/day per os, the mice died after a few days of treatment): not tolerated
Average volume of the tumours of the treated mice compared to the average volume of the tumours of the non-treated mice (T/C) (%) ([6]; harmine 100 mg/kg/day per os, Day 40): 77%
Average volume of the tumours of the treated mice compared to the average volume of the tumours of the non-treated mice (T/C) (%) ([6]; harmine 125 mg/kg/day per os, Day 30): 55%
Average volume of the tumours of the treated mice compared to the average volume of the tumours of the non-treated mice (T/C) (%) ([6]; harmine 175 mg/kg/day per os, Day 40): 10%
Average volume of the tumours of the treated mice compared to the average volume of the tumours of the non-treated mice (T/C) (%) ([6]; harmine 175 mg/kg/day per os, Day 50): 30%
